Test results published in ChEMBL document CHEMBL1201862, “PubChem BioAssay data set” (2004).
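Briefly, cells in 96-well plates were exposed to five compound concentrations for 48 h, and endpoints were estimated by linear interpolation. GI50 = concentration required for 50% inhibition of growth.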 Calls of active or inactive are those of the source. No stated cut-off is given here; in the data, active = GI50 up to about 1.1 µM and inactive = higher.

Legend:
Experiment in all cases: NCI tumour cell line growth inhibition, 48 h
DMS-114 = tested on: DMS-114
HCC 2998 = tested on: HCC 2998
HCT-15 = tested on: HCT-15
HOP-62 = tested on: HOP-62
HT-29 = tested on: HT-29
KM12 = tested on: KM12
M14 = tested on: M14
NCI-H460 = tested on: NCI-H460
OVCAR-3 = tested on: OVCAR-3
RPMI-8226 = tested on: RPMI-8226
SF-268 = tested on: SF-268
SF-295 = tested on: SF-295
SF-539 = tested on: SF-539
SK-MEL-28 = tested on: SK-MEL-28
UO-31 = tested on: UO-31
UACC-257 = tested on: UACC-257
Hs-578T = tested on: Hs-578T
MCF7 = tested on: MCF7
MDA-MB-231 = tested on: MDA-MB-231
MDA-MB-435 = tested on: MDA-MB-435

SMILES: NC(=O)c1ncn(C2OC(CO)C(O)C2O)c1O (configuration not stated)
- GI50 (DMS-114): > 100 µM (inactive)
- GI50 (HCC 2998): 56.8 µM (inactive)
- GI50 (HCT-15): 65.2 µM
- GI50 (HOP-62): > 100 µM (inactive)
- GI50 (HT-29): 4.69 µM (inactive)
- GI50 (KM12): 46.6 µM (inactive)
- GI50 (M14): > 100 µM (inactive)
- GI50 (NCI-H460): 53.7 µM (inactive)
- GI50 (OVCAR-3): 96.8 µM (inactive)
- GI50 (RPMI-8226): > 100 µM (inactive)
- GI50 (SF-268): > 100 µM (inactive)
- GI50 (SF-295): > 100 µM (inactive)
- GI50 (SF-539): > 100 µM (inactive)
- GI50 (SK-MEL-28): > 100 µM (inactive)
- GI50 (UO-31): 61.9 µM (inactive)

SMILES: CCN(CC)C(=S)N/N=C(\C)c1ccccc1O
- GI50 (DMS-114): 11.9 µM (inactive)
- GI50 (HCC 2998): 13.4 µM (inactive)
- GI50 (HCT-15): 3.72 µM
- GI50 (HOP-62): 34.6 µM (inactive)
- GI50 (HT-29): 19.5 µM (inactive)
- GI50 (KM12): 15.5 µM (inactive)
- GI50 (M14): 17.5 µM (inactive)
- GI50 (NCI-H460): 4.84 µM (inactive)
- GI50 (OVCAR-3): 34.3 µM (inactive)
- GI50 (RPMI-8226): 18.5 µM (inactive)
- GI50 (SF-268): 17.9 µM (inactive)
- GI50 (SF-295): 15.5 µM (inactive)
- GI50 (SF-539): 18 µM (inactive)
- GI50 (SK-MEL-28): 23.4 µM (inactive)
- GI50 (UACC-257): 27 µM (inactive)
- GI50 (UO-31): 14.3 µM (inactive)

SMILES: Nc1ccc(C(=O)N/C(=C\C=C\c2ccco2)c2nc3c4c(ccc3[nH]2)C(=O)c2ccccc2C4=O)cc1
- GI50 (DMS-114): 18.5 µM (inactive)
- GI50 (HCC 2998): 44.9 µM (inactive)
- GI50 (HCT-15): 31.9 µM
- GI50 (HOP-62): 56.2 µM (inactive)
- GI50 (HT-29): 49.7 µM (inactive)
- GI50 (KM12): 13.6 µM (inactive)
- GI50 (M14): 55 µM (inactive)
- GI50 (OVCAR-3): 32.9 µM (inactive)
- GI50 (RPMI-8226): 3.21 µM (inactive)
- GI50 (SF-268): 10.2 µM (inactive)
- GI50 (SF-295): 31.7 µM (inactive)
- GI50 (SF-539): 17.2 µM (inactive)
- GI50 (SK-MEL-28): 36.6 µM (inactive)
- GI50 (UACC-257): > 100 µM (inactive)
- GI50 (UO-31): 2.34 µM (inactive)

SMILES: NC(CCCCN/C=C1/N=C(c2ccccc2)OC1=O)C(=O)O (configuration not stated)
- GI50 (DMS-114): > 100 µM (inactive)
- GI50 (HCC 2998): > 100 µM (inactive)
- GI50 (HCT-15): > 100 µM
- GI50 (HOP-62): > 100 µM (inactive)
- GI50 (HT-29): > 100 µM (inactive)
- GI50 (M14): > 100 µM (inactive)
- GI50 (NCI-H460): > 100 µM (inactive)
- GI50 (OVCAR-3): > 100 µM (inactive)
- GI50 (RPMI-8226): > 100 µM (inactive)
- GI50 (SF-268): > 100 µM (inactive)
- GI50 (SF-295): > 100 µM (inactive)
- GI50 (SF-539): > 100 µM (inactive)
- GI50 (SK-MEL-28): > 100 µM (inactive)
- GI50 (UACC-257): > 100 µM (inactive)
- GI50 (UO-31): > 100 µM (inactive)

SMILES: CN(C)CCNC(=O)c1c2ccccc2cc2ccccc12
- GI50 (DMS-114): 53.1 µM (inactive)
- GI50 (HCC 2998): 32.7 µM (inactive)
- GI50 (HCT-15): 36 µM
- GI50 (HOP-62): 55.7 µM (inactive)
- GI50 (HT-29): 39.1 µM (inactive)
- GI50 (KM12): 42.8 µM (inactive)
- GI50 (M14): 16.7 µM (inactive)
- GI50 (NCI-H460): 18.1 µM (inactive)
- GI50 (OVCAR-3): 93.8 µM (inactive)
- GI50 (RPMI-8226): 17.5 µM (inactive)
- GI50 (SF-268): 44.7 µM (inactive)
- GI50 (SF-295): 61.2 µM (inactive)
- GI50 (SF-539): 32.7 µM (inactive)
- GI50 (SK-MEL-28): 25.5 µM (inactive)
- GI50 (UACC-257): 18.5 µM (inactive)
- GI50 (UO-31): 26.2 µM (inactive)

SMILES: NNC(=O)C(=O)N/N=C(\CCC(=O)Nc1ccc(Cl)cc1)Cc1nc2ccccc2s1
- GI50 (DMS-114): 19.1 µM (inactive)
- GI50 (HCC 2998): 44.7 µM (inactive)
- GI50 (HCT-15): 19.1 µM
- GI50 (HOP-62): 53.2 µM (inactive)
- GI50 (HT-29): 44.8 µM (inactive)
- GI50 (KM12): 51.1 µM (inactive)
- GI50 (M14): 19.7 µM (inactive)
- GI50 (NCI-H460): 28 µM (inactive)
- GI50 (OVCAR-3): 18.2 µM (inactive)
- GI50 (RPMI-8226): 25.6 µM (inactive)
- GI50 (SF-268): 25.3 µM (inactive)
- GI50 (SF-295): 36.6 µM (inactive)
- GI50 (SF-539): 32.7 µM (inactive)
- GI50 (SK-MEL-28): 71.8 µM (inactive)
- GI50 (UACC-257): 32.9 µM (inactive)
- GI50 (UO-31): 11.9 µM (inactive)

SMILES: O=C1CCCC2=C(N1)C(=O)C=CC2=O
- GI50 (DMS-114): > 41.7 µM (inactive)
- GI50 (HCC 2998): 60.8 µM (inactive)
- GI50 (HCT-15): 42.2 µM
- GI50 (HOP-62): 44.4 µM (inactive)
- GI50 (HT-29): 42.8 µM (inactive)
- GI50 (Hs-578T): 29 µM (inactive)
- GI50 (KM12): 25.6 µM (inactive)
- GI50 (M14): 39.8 µM (inactive)
- GI50 (MCF7): 18.8 µM (inactive)
- GI50 (MDA-MB-231): 16.7 µM (inactive)
- GI50 (MDA-MB-435): 18.6 µM (inactive)
- GI50 (NCI-H460): 45.3 µM (inactive)
- GI50 (OVCAR-3): 43.5 µM (inactive)
- GI50 (RPMI-8226): 23.9 µM (inactive)
- GI50 (SF-268): 46.2 µM (inactive)
- GI50 (SF-295): 41.7 µM (inactive)
- GI50 (SF-539): 44.4 µM (inactive)
- GI50 (SK-MEL-28): 45.4 µM (inactive)
- GI50 (UACC-257): 45.2 µM (inactive)
- GI50 (UO-31): 43.7 µM (inactive)

SMILES: c1ccc(C2=NN(c3ccccc3)C3(S2)SC(c2ccccc2)(c2ccccc2)c2ccccc23)cc1 (configuration not stated)
- GI50 (DMS-114): > 100 µM (inactive)
- GI50 (HCC 2998): > 100 µM (inactive)
- GI50 (HCT-15): > 100 µM
- GI50 (HOP-62): > 100 µM (inactive)
- GI50 (HT-29): > 100 µM (inactive)
- GI50 (KM12): > 100 µM (inactive)
- GI50 (M14): > 100 µM (inactive)
- GI50 (NCI-H460): > 100 µM (inactive)
- GI50 (OVCAR-3): > 100 µM (inactive)
- GI50 (RPMI-8226): > 100 µM (inactive)
- GI50 (SF-268): > 100 µM (inactive)
- GI50 (SF-295): > 100 µM (inactive)
- GI50 (SF-539): > 100 µM (inactive)
- GI50 (SK-MEL-28): > 100 µM (inactive)
- GI50 (UACC-257): > 100 µM (inactive)
- GI50 (UO-31): > 100 µM (inactive)

SMILES: COc1cc(C2c3cc4c(cc3[C@@H](Nc3ccc([N+](=O)[O-])cc3)C3COC(=O)[C@H]23)OCO4)cc(OC)c1O (some centres not stated)
- GI50 (DMS-114): 1.52 µM (inactive)
- GI50 (HCC 2998): 2.99 µM (inactive)
- GI50 (HCT-15): 2.87 µM
- GI50 (HOP-62): 0.321 µM (active)
- GI50 (HT-29): 2.64 µM (inactive)
- GI50 (KM12): 2.56 µM (inactive)
- GI50 (M14): 1.33 µM (inactive)
- GI50 (MCF7): 0.615 µM (active)
- GI50 (MDA-MB-435): 6.11 µM (inactive)
- GI50 (NCI-H460): 0.0286 µM (active)
- GI50 (OVCAR-3): 4.57 µM (inactive)
- GI50 (RPMI-8226): 0.525 µM (active)
- GI50 (SF-268): 2.01 µM (inactive)
- GI50 (SF-295): 0.466 µM (active)
- GI50 (SF-539): 0.92 µM (active)
- GI50 (SK-MEL-28): 3.84 µM (inactive)
- GI50 (UACC-257): 4.65 µM (inactive)
- GI50 (UO-31): 1.52 µM (inactive)
